The values that follow come from PMC7354438 (Viruses, 2020).

Structures can show the parent of a compound that is named as a salt.

The test concerns hCoV-19/Norway/Trondheim-E9/2020. Put plainly: Drug test: viability of SARS-CoV-2-infected Vero-E6 cells (CellTiter-Glo). The class given is cell-based. Details: AUC: unit not given beside the values. The note with it: 72 h. (In general: ATP-based viability assays read luminescence as a measure of living cells.)
Where [1] appears, read: area under the dose-response curve of viability of virus-infected Vero-E6 cells, moi 0.1, 7 concentrations, decimal comma.

Regarding `Nc1ccn(C[C@@H](CO)OCP(=O)(O)O)c(=O)n1` [Cidofovir], the AUC under setting [1] was 144,69. `CNC(=C[N+](=O)[O-])NCCSCc1ccc(CN(C)C)o1` [Ranitidine]: the AUC under setting [1] is 94,08. Take `CO[C@@]1(NC(=O)C(C(=O)[O-])c2ccc(O)cc2)C(=O)N2C(C(=O)[O-])=C(CSc3nnnn3C)CO[C@@H]21.[Na+].[Na+]` (some centres unmarked) [Moxalactam sodium salt]: the AUC is 18,13. The same measure, in the same setting: in the case of `CC[C@@]1([C@@H]2O[C@@H]([C@H]3O[C@@](O)(CO)[C@H](C)C[C@@H]3C)C[C@@H]2C)CC[C@H]([C@]2(C)CC[C@]3(C[C@H](O)[C@@H](C)[C@@H]([C@@H](C)[C@@H](OC)[C@H](C)C(=O)O)O3)O2)O1` [Monensin] it was 254,31. Turning to `CC[C@@]1(O)C(=O)OCc2c1cc1n(c2=O)Cc2cc3c(CN(C)C)c(O)ccc3nc2-1` [Topotecan], under setting [1], the AUC is 124,6.

In the case of `C[C@]12Cc3c[nH]nc3C[C@@H]1CC[C@@H]1[C@@H]2CC[C@@]2(C)[C@H]1CC[C@]2(C)O` [Stanozolol], the AUC is recorded as 161,7. On to `COc1cc2ncnc(Nc3ccc(F)c(Cl)c3)c2cc1OCCCN1CCOCC1` [Gefitinib], for which the AUC under setting [1] is listed as 188,86.

Consider `Cc1cc(O)c2c(c1)C(=O)c1cc(O)cc(O)c1C2=O` [Emodin], for which the AUC is listed as 170,24. As to `CC1=C(/C=C/C(C)=C/C=C/C(C)=C/C(=O)Nc2ccc(O)cc2)C(C)(C)CCC1` [Fenretinide (4-HPR), Fenretinide], under setting [1], the AUC is recorded as 137,9. Same read-out and setting: next, `COc1c(C)c2c(c(O)c1C/C=C(\C)CCC(=O)O)C(=O)OC2` [Mycophenolic acid]: 103,74; `CCCCOc1cc(C(=O)NCCN(CC)CC)c2ccccc2n1` [Dibucaine]: 214,34; `COc1ccc2[nH]c([S+]([O-])Cc3ncc(C)c(OC)c3C)nc2c1` (centres unmarked) [Omeprazole]: 139,02. For `C[C@@H]1O[C@@H](O[C@H]2C[C@@H](O)[C@]3(CO)[C@H]4[C@H](O)C[C@]5(C)[C@@H](C6=CC(=O)OC6)CC[C@]5(O)[C@@H]4CC[C@]3(O)C2)[C@H](O)[C@H](O)[C@H]1O` [Ouabain octahydrate], the AUC is 41,93.

In the case of `N=C(N)NC(=O)c1nc(Cl)c(N)nc1N` [Amiloride (EIPA)], the AUC under setting [1] is reported as 182,56. `Cc1ccc(C(=O)Nc2ccc(S(=O)(=O)O)c3cc(S(=O)(=O)O)cc(S(=O)(=O)O)c23)cc1NC(=O)c1cccc(NC(=O)Nc2cccc(C(=O)Nc3cc(C(=O)Nc4ccc(S(=O)(=O)O)c5cc(S(=O)(=O)O)cc(S(=O)(=O)O)c45)ccc3C)c2)c1` [Suramin]: the AUC is reported as 94,57. The same measure, in the same setting: in the case of `CC1(C)[C@@H](O[C@H]2O[C@H](C(=O)O)[C@@H](O)[C@H](O)[C@H]2O[C@@H]2O[C@H](C(=O)O)[C@@H](O)[C@H](O)[C@H]2O)CC[C@]2(C)[C@H]3C(=O)C=C4[C@@H]5C[C@@](C)(C(=O)O)CC[C@]5(C)CC[C@@]4(C)[C@]3(C)CC[C@@H]12` [Glycyrrhizic acid (Glycyrrhizin), Glycyrrhizic acid] it was 235,76.

In the case of `O=c1cc(-c2ccc(O)c(O)c2)oc2cc(O)cc(O)c12` [Luteolin], the AUC under setting [1] is reported as 119,07. Same read-out and setting: in the case of `CC(C)Nc1nc2cc(Cl)c(Cl)cc2n1[C@H]1O[C@@H](CO)[C@H](O)[C@@H]1O` [Maribavir] it was 145,81. The same measure, in the same setting: next, `CC(C)C(=O)OCC(=O)[C@@]12O[C@H](C3CCCCC3)O[C@@H]1C[C@H]1[C@@H]3CCC4=CC(=O)C=C[C@]4(C)[C@H]3[C@@H](O)C[C@@]12C` [Ciclesonide]: 157,15. For the molecule `CC(C)OC(=O)[C@H](C)N[P@](=O)(OC[C@H]1O[C@@H](n2ccc(=O)[nH]c2=O)[C@](C)(F)[C@@H]1O)Oc1ccccc1` [PSI-7977 (Sofosbuvir), Sofosbuvir], the AUC was 131,11. On to `Nc1nc(O)c2ncn(COC(CO)CO)c2n1` [Ganciclovir], for which the AUC under setting [1] is recorded as 243,88. On the same count and under the same terms, in the case of `CN(C)C(=O)COC(=O)Cc1ccc(OC(=O)c2ccc(NC(=N)N)cc2)cc1` [Camostat] it was 88,41.

`COc1ccc2cc3[n+](cc2c1OC)CCc1cc2c(cc1-3)OCO2` [Berberine]: the AUC was 236,67. Regarding `Cc1nc(Nc2ncc(C(=O)Nc3c(C)cccc3Cl)s2)cc(N2CCN(CCO)CC2)n1` [Dasatinib], the AUC under setting [1] is reported as 135,45. Still for that read-out and setting: next, `O=C(/C=C\n1cnc(-c2cc(C(F)(F)F)cc(C(F)(F)F)c2)n1)NNc1ccccn1` [Verdinexor]: 83,93.

For `COC(=O)C1=C(C)NC(C)=C(C(=O)OCCN2CCN(C(c3ccccc3)c3ccccc3)CC2)C1c1cccc([N+](=O)[O-])c1` (centres unmarked) [Manidipine], under setting [1], the AUC is listed as 133. On the same count and under the same terms, in the case of `CN(Cc1cc(Br)cc(Br)c1N)C1CCCCC1` [Bromhexine HCl] it was 124,95; in that of `Nc1ccn([C@@H]2O[C@H](CO)[C@@H](O)C2(F)F)c(=O)n1` [Gemcitabine], 92,89; in that of `CC(C)n1c(/C=C/C(O)CC(O)CC(=O)O)c(-c2ccc(F)cc2)c2ccccc21` (centres unmarked) [Fluvastatin], 154,14. With `CC(C)[C@H](N)C(=O)OCCOCn1cnc2c(=O)[nH]c(N)nc21` [Valaciclovir], under setting [1], the AUC is 134,61. Still for that read-out and setting: in the case of `CNC(=O)c1cc(Oc2ccc(NC(=O)Nc3ccc(Cl)c(C(F)(F)F)c3)cc2)ccn1` [Sorafenib (BAY 43-9006), Sorafenib] it was 33,12. Same read-out and setting: next, `CC(=O)N[C@@H](CS)C(=O)O` [Acetylcysteine]: 43,47. On the same count and under the same terms, in the case of `O=c1[nH]c(=O)n([C@H]2C[C@H](O)[C@@H](CO)O2)cc1C(F)(F)F` [Trifluridine] it was 107,17. As for `C[C@H]1O[C@H](O[C@H]2[C@H](O)[C@@H](O)[C@@H](O)[C@H](O)[C@@H]2O)[C@@H](N)C[C@@H]1NC(=N)C(=O)O` [Kasugamycin], the AUC is recorded as 88,55. On the same count and under the same terms, next, `Oc1c(Cl)cc(Cl)c(Cl)c1Cc1c(O)c(Cl)cc(Cl)c1Cl` [Hexachlorophene]: 122,15. As for `COc1ccc([C@@H]2Sc3ccccc3N(CCN(C)C)C(=O)[C@@H]2OC(C)=O)cc1` [Diltiazem], the AUC under setting [1] is reported as 99,61. Still for that read-out and setting: next, `CC(=O)N[C@H]1[C@H]([C@H](O)[C@H](O)CO)OC(C(=O)O)=C[C@@H]1N=C(N)N` [Zanamivir]: 113,54. On the same count and under the same terms, in the case of `CCN(CC)CCCC(C)Nc1c2ccc(Cl)cc2nc2ccc(OC)cc12` (centres unmarked) [Quinacrine dihydrochloride] it was 105,63.

For the molecule `COc1ccc(C[C@H]2NC[C@H](O)[C@H]2OC(C)=O)cc1` [Anisomycin], the AUC was 169,33. The same measure, in the same setting: next, Chicoric acid: 93,1. `O=C(Nc1ccc([N+](=O)[O-])cc1Cl)c1cc(Cl)ccc1O` [Niclosamide]: the AUC under setting [1] is 149,52.

Take `Cn1c(=O)c2c(ncn2CC(O)CO)n(C)c1=O` (centres unmarked) [7-(2,3-Dihydroxypropyl)theophylline]: the AUC was 195,44. Consider `CC[C@H](C)C(=O)O[C@H]1C[C@@H](C)C=C2C=C[C@H](C)[C@H](CC[C@@H]3C[C@@H](O)CC(=O)O3)[C@H]21` [Lovastatin], for which the AUC under setting [1] is 204,26.

Regarding `Cn1c(=O)c2c(ncn2C)n(C)c1=O` [Caffeine], the AUC under setting [1] is recorded as 147,28. The same measure, in the same setting: next, `O=c1c(-c2ccc(O)cc2)coc2cc(O[C@@H]3O[C@H](CO)[C@@H](O)[C@H](O)[C@H]3O)cc(O)c12` [Genistin]: 54,1. Turning to `COc1ccc(CC(C)NCC(O)c2ccc(O)c(NC=O)c2)cc1` (centres unmarked) [Formoterol], the AUC was 203,77.

Regarding `CNC(=O)c1cc(Oc2ccc(NC(=O)Nc3ccc(Cl)c(C(F)(F)F)c3)c(F)c2)ccn1` [Regorafenib], the AUC under setting [1] is listed as 24,12. As for `CCCCCCCCCCNCCN[C@@]1(C)C[C@H](O[C@H]2[C@H](Oc3c4cc5cc3Oc3ccc(cc3Cl)[C@@H](O)[C@@H](NC(=O)[C@@H](CC(C)C)NC)C(=O)N[C@@H](CC(N)=O)C(=O)N[C@H]5C(=O)N[C@H]3C(=O)N[C@H](C(=O)N[C@H](C(=O)O)c5cc(O)c(CNCP(=O)(O)O)c(O)c5-c5cc3ccc5O)[C@H](O)c3ccc(c(Cl)c3)O4)O[C@H](CO)[C@@H](O)[C@@H]2O)O[C@@H](C)[C@H]1O` [Telavancin], the AUC is 139,65. For the molecule `Cc1cc(CCCOc2c(C)cc(-c3noc(C(F)(F)F)n3)cc2C)on1` [Pleconaril], under setting [1], the AUC is 141,75. Still for that read-out and setting: in the case of `CN1[C@@H]2CC[C@H]1C[C@@H](OC(c1ccccc1)c1ccccc1)C2` [Benzatropine] it was 208,11; in that of `CCC(C)(C)C(=O)O[C@H]1C[C@@H](C)C=C2C=C[C@H](C)[C@H](CC[C@@H]3C[C@@H](O)CC(=O)O3)[C@H]21` [Simvastatin], 163,03; in that of `NC(=O)c1ncn([C@@H]2O[C@H](CO)[C@@H](O)[C@H]2O)n1` [Ribavirin], 134,26. As for Ivermectin, the AUC is 66,08. For the molecule `Nc1nc(Cl)nc2c1ncn2[C@@H]1O[C@H](CO)[C@@H](O)[C@@H]1F` [Clofarabine], under setting [1], the AUC is listed as 112,42.

On to `C/C(O)=C(\C#N)C(=O)Nc1ccc(C(F)(F)F)cc1` [Teriflunomide], for which the AUC under setting [1] was 72,87. Regarding `CN[C@H](CC(C)C)C(=O)N[C@H]1C(=O)N[C@@H](CC(N)=O)C(=O)N[C@H]2C(=O)N[C@H]3C(=O)N[C@H](C(=O)N[C@H](C(=O)O)c4cc(O)cc(O)c4-c4cc3ccc4O)[C@H](O[C@H]3C[C@](C)(N)[C@@H](O)[C@H](C)O3)c3ccc(c(Cl)c3)Oc3cc2cc(c3O[C@@H]2O[C@H](CO)[C@@H](O)[C@H](O)[C@H]2O[C@H]2C[C@](C)(NCc3ccc(-c4ccc(Cl)cc4)cc3)[C@@H](O)[C@H](C)O2)Oc2ccc(cc2Cl)[C@H]1O` [Oritavancin], the AUC is 163,24. `CCN(CC)CCCC(C)Nc1ccnc2cc(Cl)ccc12` (centres unmarked) [Chloroquine phosphate]: the AUC under setting [1] was 165,9. Same read-out and setting: next, `CC/C(=C(\c1ccccc1)c1ccc(OCCN(C)C)cc1)c1ccccc1` [Tamoxifen]: 54,67; `CN(C)CCCN1c2ccccc2Sc2ccc(Cl)cc21` [Chlorpromazine hydrochloride]: 86,52. On the same count and under the same terms, next, `NC(=O)c1nc(F)c[nH]c1=O` [Favipiravir (T-705), Favipiravir]: 136,64. Pentosan polysulfate: the AUC is listed as 123,06. As for `O=C1O[C@H]([C@@H](O)CO)C(O)=C1O` [Ascorbic acid], under setting [1], the AUC was 108,5.
